Laboratory results as given in PubChem BioAssay AID1963422 (Molecular Pharmacology Branch, DTP, NCI, 2024).

Tested on: 463943-066-T-J2-PDC complex spheroid growth
Assay: Anticancer human tumor 463943-066-T-J2-PDC patient-derived colon adenocarcinoma cell line growth inhibition [Asc]
Settings: for IC50: curve of first compound; for viability, T/C: stronger effect = lower value
Method in brief: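 Tumor cells were grown as multicellular spheroids with stromal HUVEC and mesenchymal stem cells and treated singly or in combination. Concentrations fell in half-log steps from the clinical Cmax, or from 10 microM where none was known.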
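Note: compound exposure lasted 7 days.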
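Throughout, for viability, T/C: 100% = DMSO vehicle control wells.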

Q: `NC(=O)C(=Cn1cnc(-c2cc(C(F)(F)F)cc(C(F)(F)F)c2)n1)c1cncnc1` + Cc1c(S(C)(=O)=O)c(-c2cc(F)cc(N3CCN(c4ccc(NS(=O)(=O)c5ccc(NC(CCN6CCC(C(=O)OCCCP(=O)(O)O)CC6)CSc6ccccc6)c(S(=O)(=O)C(F)(F)F)c5)cc4)CC3)c2)c(-c2ccc(Cl)cc2)n1C(C)C was tested. Which IC50 (second compound 0.0316 µM) did it give?
A: Its IC50 is > 300 nM.

Q: And the IC50 (second compound 0.1 µM)?
A: The IC50 was > 300 nM.

Q: What about the IC50 (second compound 0.316 µM) of the same compound?
A: The IC50 was > 300 nM.

Q: And the IC50 (second compound 1 µM)?
A: Its IC50 is > 300 nM.

Q: What about the IC50 (second compound 3.16 µM) of the same compound?
A: The IC50 was > 300 nM.

Q: What about the IC50 (second compound 10 µM) of the same compound?
A: The IC50 was 0.949 nM.

Q: What about the viability, T/C (second compound 0.0316 µM, first compound 0.000949 µM) of the same compound?
A: Its viability, T/C is 96.5%.

Q: What about the viability, T/C (second compound 0.0316 µM, first compound 0.003 µM) of the same compound?
A: The viability, T/C was 97%.

Q: What about the viability, T/C (second compound 0.0316 µM, first compound 0.00949 µM) of the same compound?
A: The viability, T/C was 84.1%.

Q: And the viability, T/C (second compound 0.0316 µM, first compound 0.03 µM)?
A: The viability, T/C was 89.1%.

Q: And the viability, T/C (second compound 0.0316 µM, first compound 0.0949 µM)?
A: The viability, T/C was 86%.

Q: What about the viability, T/C (second compound 0.0316 µM, first compound 0.3 µM) of the same compound?
A: Its viability, T/C is 72.3%.

Q: And the viability, T/C (second compound 0.1 µM, first compound 0.000949 µM)?
A: The viability, T/C was 93.9%.

Q: And the viability, T/C (second compound 0.1 µM, first compound 0.003 µM)?
A: The viability, T/C was 88.4%.

Q: And the viability, T/C (second compound 0.1 µM, first compound 0.00949 µM)?
A: The viability, T/C was 84.4%.

Q: And the viability, T/C (second compound 0.1 µM, first compound 0.03 µM)?
A: The viability, T/C was 80.7%.

Q: What about the viability, T/C (second compound 0.1 µM, first compound 0.0949 µM) of the same compound?
A: The viability, T/C was 81.8%.

Q: And the viability, T/C (second compound 0.1 µM, first compound 0.3 µM)?
A: The viability, T/C was 69.5%.

Q: And the viability, T/C (second compound 0.316 µM, first compound 0.000949 µM)?
A: The viability, T/C was 83.5%.

Q: And the viability, T/C (second compound 0.316 µM, first compound 0.003 µM)?
A: The viability, T/C was 90.7%.

Q: And the viability, T/C (second compound 0.316 µM, first compound 0.00949 µM)?
A: The viability, T/C was 75.2%.

Q: What about the viability, T/C (second compound 0.316 µM, first compound 0.03 µM) of the same compound?
A: Its viability, T/C is 78.8%.

Q: What about the viability, T/C (second compound 0.316 µM, first compound 0.0949 µM) of the same compound?
A: The viability, T/C was 72%.

Q: And the viability, T/C (second compound 0.316 µM, first compound 0.3 µM)?
A: The viability, T/C was 71.3%.

Q: And the viability, T/C (second compound 1 µM, first compound 0.000949 µM)?
A: The viability, T/C was 78.9%.

Q: What about the viability, T/C (second compound 1 µM, first compound 0.003 µM) of the same compound?
A: Its viability, T/C is 75.2%.

Q: And the viability, T/C (second compound 1 µM, first compound 0.00949 µM)?
A: The viability, T/C was 68.8%.

Q: And the viability, T/C (second compound 1 µM, first compound 0.03 µM)?
A: Its viability, T/C is 72%.

Q: What about the viability, T/C (second compound 1 µM, first compound 0.0949 µM) of the same compound?
A: The viability, T/C was 72.7%.

Q: What about the viability, T/C (second compound 1 µM, first compound 0.3 µM) of the same compound?
A: The viability, T/C was 61%.

Q: And the viability, T/C (second compound 3.16 µM, first compound 0.000949 µM)?
A: The viability, T/C was 61.2%.

Q: What about the viability, T/C (second compound 3.16 µM, first compound 0.003 µM) of the same compound?
A: Its viability, T/C is 59.6%.

Q: What about the viability, T/C (second compound 3.16 µM, first compound 0.00949 µM) of the same compound?
A: The viability, T/C was 57.6%.

Q: What about the viability, T/C (second compound 3.16 µM, first compound 0.03 µM) of the same compound?
A: Its viability, T/C is 58.8%.

Q: What about the viability, T/C (second compound 3.16 µM, first compound 0.0949 µM) of the same compound?
A: The viability, T/C was 55.7%.

Q: What about the viability, T/C (second compound 3.16 µM, first compound 0.3 µM) of the same compound?
A: Its viability, T/C is 49.6%.

Q: And the viability, T/C (second compound 10 µM, first compound 0.000949 µM)?
A: Its viability, T/C is 50.1%.

Q: And the viability, T/C (second compound 10 µM, first compound 0.003 µM)?
A: Its viability, T/C is 45.6%.

Q: And the viability, T/C (second compound 10 µM, first compound 0.00949 µM)?
A: Its viability, T/C is 48.6%.

Q: What about the viability, T/C (second compound 10 µM, first compound 0.03 µM) of the same compound?
A: The viability, T/C was 44%.

Q: What about the viability, T/C (second compound 10 µM, first compound 0.0949 µM) of the same compound?
A: Its viability, T/C is 52%.

Q: What about the viability, T/C (second compound 10 µM, first compound 0.3 µM) of the same compound?
A: The viability, T/C was 36.2%.
